Entries after “also recorded” stand apart in the source; their conditions may differ. Non-standard residues stand in square brackets, D forms with d. Residues, ends and D or L forms follow the SMILES beside them. *: point of attachment. Butyryl = CCCC(=O)*
How the values were obtained:
[1] = HPLC retention time as indicator of relative hydrophobicity; format: physicochemical; conditions: chromatographic, Kromasil 100 C18 (4.6 mm × 40 mm, 3 μm), linear gradient 2 to 100% B over 12 min, 1 mL/min; A 0.1% aqueous TFA, B 0.1% TFA in CH3CN; used as indicator of relative hydrophobicity
How it was run: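 Reversed-phase HPLC on Kromasil 100 C18 (4.6 × 40 mm, 3 μm), 0.1% TFA in water/acetonitrile, linear 2–100% B at 1 mL/min over 7 min (method A, UV 220 nm) or 12 min (method B). Retention time serves as relative hydrophobicity.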

[2] = tested on: X. axonopodis pv. vesicatoria strain 206 on tomato plants (cv. Rio grande); experiment: Bacterial spot of tomato, whole-plant infection assay; format: in vivo; conditions: peptide sprayed at 125 μM 24 h before inoculation with 10^8 CFU/mL, severity 13 days after inoculation, two independent experiments, three replicates of three plants, Tukey's test P < 0.05
Protocol: The effect of the peptide conjugates flg15-BP387, flg15-BP475, and PIP1-BP475 and the monomers flg15 and PIP1 to reduce bacterial spot infection, caused by X. axonopodis pv. vesicatoria, was tested in potted tomato plant assays (Fig. 4).
FIG 4 Effect of the peptides on the bacterial spot of tomato plant severity. Two independent experiments were performed. Disease severity was evaluated in tomato plants 13 days after pathogen inoculation. A nontreated control (NTC) and a treatment with copper oxychloride were included as references. Values correspond to the mean disease severity of three replicates of three plants per each treatment, and error bars represent the confidence interval (α = 0.05). […] The photographs show the symptoms observed in nontreated (A) and flg15-BP475-treated (B) plants.
The efficacy of peptides in bacterial spot of tomato suppression was determined using whole-plant infection assays with tomato plants (cv. Rio grande) inoculated with X. axonopodis pv. vesicatoria strain 206. Tomato plants (4 weeks old) were sprayed with a hand sprayer (Herkules; Nuair, Robassomero, Italy) with 6 mL of an aqueous suspension of flg15-BP387, flg15-BP475, PIP1-BP475, flg15, and PIP1 at 125 μM. An NTC was included by spraying plants with water. A treatment with 70% copper oxychloride at 2 g/L (Cuprocol; Syngenta, Spain) was also included as a positive control. After 24 h, treated plants were spray-inoculated until the runoff point (6 mL) with a suspension of X. axonopodis pv. vesicatoria at 10^8 CFU/mL mixed with diatomaceous earth at 1 mg/mL. Plants were incubated under controlled greenhouse conditions (25 ± 2°C, 16 h light; 15 ± 2°C, 8 h dark; 60% relative humidity). The experimental design consisted of three replicates of three plants per treatment. Two independent experiments were performed. Severity of infections was determined per each replicate after 13 days of pathogen inoculation ([71]). A severity index, ranging from 0 to 4 (0, no symptoms; 1, necrosis/lesions up to 25% of the leaf surface; 2, necrosis/lesions on 25 to 50% of the leaf surface; 3, severe necrosis/lesions on 50 to 75% of the leaf surface; and 4, severe necrosis/lesions on >75% of the leaf surface), was determined for each of the leaves (with 4 to 5 leaflets) of a plant, and it was used to calculate the disease severity index per plant according to the formula
where S is the severity of the infections per plant, Si is the severity index for each leaf, and n is the number of leaves measured, which is multiplied by the maximum severity index (i.e., 4). Then, the mean of the severity index of the three plants of each replicate was calculated. The effect of peptide treatments on plant material infection was determined using analysis of variance (ANOVA). […]

For CCCC(=O)NCCCC[C@H](NC(=O)[C@H](CCCCN)NC(=O)[C@H](CC(C)C)NC(=O)[C@@H](NC(=O)[C@H](CCCCN)NC(=O)[C@H](CCCCN)NC(=O)[C@@H](Cc1ccccc1)NC(=O)[C@H](CC(C)C)NC(=O)[C@H](CCCCN)NC(=O)[C@H](CCCCN)NC(=O)[C@H](Cc1c[nH]cn1)NC(=O)[C@@H](NC(=O)[C@H](Cc1c[nH]cn1)NC(=O)[C@@H](NC(=O)CNC(=O)[C@H](Cc1ccc(O)cc1)NC(C)=O)[C@@H](C)CC)[C@@H](C)O)[C@@H](C)CC)C(=O)N[C@@H](CC(C)C)C(N)=O [PIP1-BP475] (Ac-YGIHTHKKL[dF]KKILKK(Butyryl)L-NH2), the “tR (min), HPLC retention time (method B)” value [1] was 5.55 min and the “Effect on severity of bacterial spot of tomato” value (“Effect on severity” below) [2] was “showed the same efficacy in reducing the disease as their respective monomers flg15 and PIP1, except for PIP1-BP475 in one of the experiments”.
In the case of CCCC(=O)NCCCC[C@H](NC(=O)[C@H](CCCCN)NC(=O)[C@H](CC(C)C)NC(=O)[C@@H](NC(=O)[C@H](CCCCN)NC(=O)[C@H](CCCCN)NC(=O)[C@@H](Cc1ccccc1)NC(=O)[C@H](CC(C)C)NC(=O)[C@H](CCCCN)NC(=O)[C@H](CCCCN)NC(=O)[C@H](C)NC(=O)[C@@H](NC(=O)[C@H](CCC(N)=O)NC(=O)[C@H](CC(C)C)NC(=O)CNC(=O)[C@H](C)NC(=O)[C@H](C)NC(=O)[C@H](CC(=O)O)NC(=O)[C@H](CC(=O)O)NC(=O)[C@H](CCCCN)NC(=O)[C@H](C)NC(=O)[C@H](CO)NC(=O)[C@H](CC(N)=O)NC(=O)[C@@H](NC(=O)[C@H](CCCNC(=N)N)NC(C)=O)[C@@H](C)CC)[C@@H](C)CC)[C@@H](C)CC)C(=O)N[C@@H](CC(C)C)C(N)=O [flg15-BP475] (Ac-RINSAKDDAAGLQIAKKL[dF]KKILKK(Butyryl)L-NH2), the “tR (min), HPLC retention time (method B)” value [1] is reported as 6.79 min and the “Effect on severity” value [2] is reported as “decreased the severity of the disease compared to treatment with flg15, this reduction being significant in one of the experiments; also recorded: showed the same or more efficacy in reducing disease infection than treatment with copper oxychloride”.
With “RINSAKDDAAGLQIA-OH [flg15, plant defense elicitor peptide, 15 amino acids of the N-terminal conserved domain of bacterial flagellin; monomer]” the “Effect on severity” value [2] was “significantly reduced the severity of bacterial spot of tomato compared to the nontreated control in both experiments”.
In the case of “YGIHTH-NH2 [PIP1, plant defense elicitor peptide identified through combinatorial chemistry; monomer]”, the “Effect on severity” value [2] is reported as “only reduced the severity of the disease in one of the experiments”.

From paper PMC9238401, “Peptide Conjugates Derived from flg15, Pep13, and PIP1 That Are Active against Plant-Pathogenic Bacteria and Trigger Plant Defense Responses” (Applied and Environmental Microbiology, 2022)
